Reference: patent US10981879B2, “Thioether triazolopyridine and triazolopyrimidine inhibitors of myeloperoxidase” (BRISTOL-MYERS SQUIBB COMPANY, priority 2014, dated 2021)

Target: myeloperoxidase (MPO) (Homo sapiens (Human), UniProt P05164)
Assay: MPO chlorination assay (APF)
Type: biochemical
Conditions: MPO chlorination assay, ranges given; read-out: MPO chlorination assay IC50
Procedure: MPO chlorination activity was measured in 100 mM KPi (pH 7.4) by utilizing the non-fluorescent reagent Aminophenyl fluorescein (APF, Invitrogen catalog #A36003). APF is cleaved by (—OCl) to yield the fluorescent compound fluorescein. Reactions were carried out in 50 μL total volume by adding a 25 μL mixture of 200 pM myeloperoxidase and 120 mM NaCl to 100 nL inhibitor in 100% DMSO in a 384 well, non-binding surface clear bottom plate (CORNING® #3655). Enzyme, inhibitor, and chloride were preincubated for ten minutes at rt.
After the ten minute preincubation, 25 μL of an APF mixture containing […], 120 mM NaCl and 10 μM H2O2 was added to the plate using the internal dispensing system of a Hammatsu FDSS 6000. Kinetic determinations were carried out immediately on the FDSS 6000 (3 minute kinetic read, 1 read every second, ex: 485 nm, em: 535 nm). IC50 values for inhibitors were calculated by taking the slope of the linear portion of the kinetic measurement (20 seconds to ˜80-120 secs). […]
[formula] where A=minimal Y value (activity level of inhibited sample), B=maximal Y value (activity level of uninhibited sample), C=Log IC50, D=Hill Slope, x=concentration of inhibitor. EPX Bromination Assay

Sequence of myeloperoxidase (MPO) (P05164 49-745): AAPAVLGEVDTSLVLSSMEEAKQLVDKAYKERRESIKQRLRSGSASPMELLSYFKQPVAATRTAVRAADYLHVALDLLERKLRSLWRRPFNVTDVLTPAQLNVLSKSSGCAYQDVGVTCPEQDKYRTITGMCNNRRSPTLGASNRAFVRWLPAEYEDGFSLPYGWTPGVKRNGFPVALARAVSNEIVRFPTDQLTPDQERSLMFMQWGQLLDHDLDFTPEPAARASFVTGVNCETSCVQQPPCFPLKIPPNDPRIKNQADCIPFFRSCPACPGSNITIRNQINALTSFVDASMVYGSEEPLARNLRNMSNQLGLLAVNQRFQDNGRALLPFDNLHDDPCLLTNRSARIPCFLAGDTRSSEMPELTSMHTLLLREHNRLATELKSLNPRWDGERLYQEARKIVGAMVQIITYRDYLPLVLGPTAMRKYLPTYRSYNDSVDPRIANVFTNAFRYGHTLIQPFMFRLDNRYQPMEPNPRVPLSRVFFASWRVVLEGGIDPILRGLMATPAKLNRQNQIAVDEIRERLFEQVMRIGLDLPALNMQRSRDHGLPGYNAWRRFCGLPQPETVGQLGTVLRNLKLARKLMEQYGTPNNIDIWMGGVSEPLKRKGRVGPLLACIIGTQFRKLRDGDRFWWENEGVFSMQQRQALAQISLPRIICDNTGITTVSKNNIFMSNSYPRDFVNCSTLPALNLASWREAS

Row | IC50 [nM] | Compound
1 | 60 to 200 | N#Cc1ccc(F)c(CSc2cc(N)nc3[nH]nnc23)c1 [Example 123, 3-(((5-amino-3H-[1,2,3]triazolo[4,5-b]pyridin-7-yl)thio)methyl)-4-fluorobenzonitrile]
2 | 60 to 200 | N#Cc1cc(Br)ccc1CSc1cc(N)nc2[nH]nnc12 [Example 21, 2-(((5-amino-3H-[1,2,3]triazolo[4,5-b]pyridin-7-yl)thio)methyl)-5-bromobenzonitrile]
3 | 200 to 1000 | COC(=O)c1ncccc1CSc1cc(N)nc2[nH]nnc12 [Example 26, methyl 3-(((5-amino-3H-[1,2,3]triazolo[4,5-b]pyridin-7-yl)thio)methyl)picolinate]
4 | 60 to 200 | Cn1nc(C2CC2)c(Cl)c1CSc1cc(N)nc2[nH]nnc12 [Example 111, 7-(((4-chloro-3-cyclopropyl-1-methyl-1H-pyrazol-5-yl)methyl)thio)-3H-[1,2,3] triazolo[4,5-b]pyridin-5-amine]
5 | 200 to 1000 | Nc1cccc(CSc2cc(N)nc3[nH]nnc23)n1 [Example 27, 7-(((6-aminopyridin-2-yl)methyl)thio)-3H-[1,2,3] triazolo[4,5-b]pyridin-5-amine]
6 | 200 to 1000 | N#Cc1ccc(CSc2cc(N)nc3[nH]nnc23)c(Cl)c1 [Example 124, 4-(((5-amino-3H-[1,2,3]triazolo[4,5-b]pyridin-7-yl)thio)methyl)-3-chlorobenzonitrile]
7 | 200 to 1000 | Nc1cc(SCc2cn(-c3cnc(C(=O)N4CCC4)cn3)nc2C(F)F)c2nn[nH]c2n1 [Example 146]
8 | 60 to 200 | Nc1cc(SCc2ccccc2CN2CCCCC2)c2nn[nH]c2n1 [Example 97, 7-((2-(piperidin-1-ylmethyl)benzyl)thio)-3H-[1,2,3] triazolo[4,5-b]pyridin-5-amine]
9 | 60 to 200 | Cc1nn(C2CCC2)c(C)c1CSc1cc(N)nc2[nH]nnc12 [Example 82, 7-(((1-cyclobutyl-3,5-dimethyl-1H-pyrazol-4-yl)methyl)thio)-3H-[1,2,3] triazolo[4,5-b]pyridin-5-amine]
10 | 60 to 200 | CN(C)Cc1ccc(F)c(CSc2cc(N)nc3[nH]nnc23)c1 [Example 99, 7-((5-((dimethylamino)methyl)-2-fluorobenzyl)thio)-3H-[1,2,3]triazolo[4,5-b]pyridin-5-amine]
11 | 200 to 1000 | Cn1nc(-c2ccccc2)c(CSc2cc(N)nc3[nH]nnc23)c1Cl [Example 71, 7-(((5-chloro-1-methyl-3-phenyl-1H-pyrazol-4-yl)methyl)thio)-3H-[1,2,3] triazolo[4,5-b]pyridin-5-amine]
12 | 60 to 200 | N#Cc1ncccc1CSc1cc(N)nc2[nH]nnc12 [Example 108, 3-(((5-amino-3H-[1,2,3]triazolo[4,5-b]pyridin-7-yl)thio)methyl)picolinonitrile]
13 | 60 to 200 | N#Cc1ccc(OC2CC2)cc1CSc1cc(N)nc2[nH]nnc12 [Example 110, 2-(((5-amino-3H-[1,2,3]triazolo[4,5-b]pyridin-7-yl)thio)methyl)-4-cyclopropoxybenzonitrile]
14 | 200 to 1000 | COc1cccc(-n2nc(C)c(CSc3cc(N)nc4[nH]nnc34)n2)c1 [Example 69, 7-(((2-(3-methoxyphenyl)-5-methyl-2H-1,2,3-triazol-4-yl)methyl)thio)-3H-[1,2,3] triazolo[4,5-b]pyridin-5-amine]
15 | 60 to 200 | Cc1nn(Cc2ccccc2)c(Cl)c1CSc1cc(N)nc2[nH]nnc12 [Example 76, 7-(((1-benzyl-5-chloro-3-methyl-1H-pyrazol-4-yl)methyl)thio)-3H-[1,2,3] triazolo[4,5-b]pyridin-5-amine]
16 | 200 to 1000 | Nc1cc(SC(C(=O)c2ccccc2)c2ccccc2)c2nn[nH]c2n1 (stereo not shown) [Example 40, 2-((5-amino-3H-[1,2,3]triazolo[4,5-b]pyridin-7-yl)thio)-1,2-diphenylethanone]
17 | 200 to 1000 | N#Cc1cn(-c2ccccc2)nc1CSc1cc(N)nc2[nH]nnc12 [Example 147, 3-(((5-amino-3H-[1,2,3]triazolo[4,5-b]pyridin-7-yl)thio)methyl)-1-phenyl-1H-pyrazol-4-carbonitrile]
18 | ≤ 60 | Nc1cc(SCc2c(Cl)cccc2S(N)(=O)=O)c2nn[nH]c2n1 [Example 64, 2-(((5-amino-3H-[1,2,3]triazolo[4,5-b]pyridin-7-yl)thio)methyl)-3-chlorobenzenesulfonamide]
19 | 60 to 200 | Nc1cc(SCc2c(Cl)ccnc2Cl)c2nn[nH]c2n1 [Example 48, 7-(((2,4-dichloropyridin-3-yl)methyl)thio)-3H-[1,2,3] triazolo[4,5-b]pyridin-5-amine]
20 | 60 to 200 | Nc1cc(SC(c2ccccc2)C(O)c2ccccc2)c2nn[nH]c2n1 (stereo not shown) [Example 46, 2-((5-amino-3H-[1,2,3]triazolo[4,5-b]pyridin-7-yl)thio)-1,2-diphenylethanol]

Row | Compound | IC50 [nM]
21 | N#Cc1ccc(-c2ccncc2)c(CSc2cc(N)nc3[nH]nnc23)c1 [Example 130, 3-(((5-Amino-3H-[1,2,3]triazolo[4,5-b]pyridin-7-yl)thio)methyl)-4-(pyridin-4-yl)benzonitrile] | ≤ 60
22 | Nc1cc(SCc2c(F)ccc(Br)c2F)c2nn[nH]c2n1 [Example 43, 7-((3-bromo-2,6-difluorobenzyl)thio)-3H-[1,2,3]triazolo[4,5-b]pyridin-5-amine] | ≤ 60
23 | CN(C)Cc1ccccc1-n1cc(CSc2cc(N)nc3[nH]nnc23)c(C(F)F)n1 [Example 150, 7-(((3-(difluoromethyl)-1-(2-((dimethylamino)methyl)phenyl)-1H-pyrazol-4-yl)methyl)thio)-3H-[1,2,3]triazolo [4,5-b]pyridin-5-amine] | ≤ 60
24 | CN(C)Cc1cccc(CSc2cc(N)nc3[nH]nnc23)c1 [Example 93, 7-((3-((dimethylamino)methyl)benzyl)thio)-3H-[1,2,3]triazolo[4,5-b]pyridin-5-amine] | ≤ 60
25 | Cn1nc(-c2ccccc2)c(F)c1CSc1cc(N)nc2[nH]nnc12 [Example 17, 7-(((4-Fluoro-1-methyl-3-phenyl-1H-pyrazol-5-yl)methyl)thio)-3H-[1,2,3]triazolo[4,5-b]pyridin-5-amine] | ≤ 60
26 | N#Cc1cc(F)ccc1CSc1cc(N)nc2[nH]nnc12 [Example 56, 2-(((5-amino-3H-[1,2,3]triazolo[4,5-b]pyridin-7-yl)thio)methyl)-5-fluorobenzonitrile] | ≤ 60
27 | Nc1cc(SCc2cn(-c3ccccn3)nc2C(F)(F)F)c2nn[nH]c2n1 [Example 135, 7-(((1-(pyridin-2-y1)-3-(trifluoromethyl)-1H-pyrazol-4-yl)methyl)thio)-3H-[1,2,3] triazolo[4,5-b]pyridin-5-amine] | ≤ 60
28 | N#Cc1ccc(CSc2cc(N)nc3[nH]nnc23)c(F)c1 [Example 47, 4-(((5-amino-3H-[1,2,3]triazolo[4,5-b]pyridin-7-yl)thio)methyl)-3-fluorobenzonitrile] | ≤ 60
29 | Nc1cc(SCc2cn(-c3cccnc3)nc2C(F)(F)F)c2nn[nH]c2n1 [Example 136] | ≤ 60
30 | CN(C)c1cc(-n2cc(CSc3cc(N)nc4[nH]nnc34)c(C(F)(F)F)n2)ccn1 [Example 141, 7-(((1-(2-(dimethylamino)pyridin-4-yl)-3-(trifluoromethyl)-1H-pyrazol-4-yl)methyl)thio)-3H-[1,2,3]triazolo [4,5-b]pyridin-5-amine] | ≤ 60
31 | Nc1cc(SCc2c(F)cccc2F)c2nn[nH]c2n1 [Example 10, 7-((2,6-Difluorobenzyl)thio)-3H-[1,2,3]triazolo[4,5-b]pyridin-5-amine] | ≤ 60
